22 compounds from patent publication US20260258035A1, “FIVE-MEMBERED AND SIX-MEMBERED NITROGEN-CONTAINING COMPOUND, AND INTERMEDIATE, PREPARATION METHOD AND USE THEREOF” (HANGZHOU SYNRX THERAPEUTICS BIOMEDICAL TECHNOLOGY CO., LTD., priority 2022, published 2026) can be followed below.

One assay deals with PARG (Homo sapiens, UniProt Q86W56). Nature of the assay: Biochemical assay (PARG, TFMU-ADPr substrate).
In the next assay the test system is HCC1806. The experiment in a line: Cell viability assay (CellTiter-Glo). The format is cell-based, Human. The note with it: HCC1806, 7 days, CellTiter-Glo, read-out: IC50 (nM) in cell viability assay.
The mark [1] stands for this setting: 4 nM PARG, 66.2 uM TFMU-ADPr, 3 min at room temperature.

Molecules are shown by their SMILES. Read-outs that look alike come from different tables or passages of the source.

Sequence of PARG (Q86W56 whole entry): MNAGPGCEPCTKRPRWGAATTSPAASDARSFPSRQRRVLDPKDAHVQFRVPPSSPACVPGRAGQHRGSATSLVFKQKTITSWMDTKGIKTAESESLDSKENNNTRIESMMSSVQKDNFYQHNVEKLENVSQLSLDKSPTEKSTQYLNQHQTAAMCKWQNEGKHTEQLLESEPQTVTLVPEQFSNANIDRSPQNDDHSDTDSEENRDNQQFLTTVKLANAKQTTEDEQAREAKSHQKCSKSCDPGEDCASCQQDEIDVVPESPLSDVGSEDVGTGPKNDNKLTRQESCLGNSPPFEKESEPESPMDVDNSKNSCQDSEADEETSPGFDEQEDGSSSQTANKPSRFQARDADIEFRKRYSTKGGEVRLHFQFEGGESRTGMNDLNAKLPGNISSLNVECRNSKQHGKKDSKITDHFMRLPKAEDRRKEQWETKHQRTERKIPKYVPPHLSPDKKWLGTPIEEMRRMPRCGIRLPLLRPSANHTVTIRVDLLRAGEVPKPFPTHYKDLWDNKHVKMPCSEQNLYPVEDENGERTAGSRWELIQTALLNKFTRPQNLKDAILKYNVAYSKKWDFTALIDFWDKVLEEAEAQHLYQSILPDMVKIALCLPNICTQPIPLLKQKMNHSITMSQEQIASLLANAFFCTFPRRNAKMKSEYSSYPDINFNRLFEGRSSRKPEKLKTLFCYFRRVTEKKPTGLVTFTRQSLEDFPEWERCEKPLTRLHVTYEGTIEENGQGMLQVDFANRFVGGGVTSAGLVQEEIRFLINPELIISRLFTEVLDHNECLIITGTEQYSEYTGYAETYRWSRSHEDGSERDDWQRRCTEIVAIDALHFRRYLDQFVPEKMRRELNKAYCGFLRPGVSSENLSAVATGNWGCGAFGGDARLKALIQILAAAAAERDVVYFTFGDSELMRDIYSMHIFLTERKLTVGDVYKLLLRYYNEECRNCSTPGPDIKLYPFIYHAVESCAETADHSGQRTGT

A word on the IC50: it is the concentration at which inhibition is half-maximal. Take `CC(C)C(=O)N1CCN(c2cc(S(=O)(=O)NC3CC3)cn3c(-c4nnc(C(F)F)s4)nc(Cl)c23)C[C@H]1C` [Example 131, (R)-1-chloro-N-cyclopropyl-3-(5-(difluoromethyl)-1,3,4-thiadiazol-2-yl)-8-(4-isobutyryl-3-methylpiperazin-1-yl)imidazo[1,5-a]pyridine-6-sulfonamide]: the IC50 was determined as 22.9 nM against PARG (PARG, TFMU-ADPr substrate) and 1680 nM with HCC1806 (Homo sapiens, HCC1806, 168 h).

As for `COCC1CN(c2cc(S(=O)(=O)NC3(C)COC3)cn3c(-c4nnc(C(F)(F)F)s4)nc(Cl)c23)CCN1` (centres unmarked) [Example 135, 1-chloro-8-(3-(methoxymethyl)piperazin-1-yl)-N-(3-methyloxetan-3-yl)-3-(5-(trifluoromethyl)-1,3,4-thiadiazol-2-yl)imidazo[1,5-a]pyridine-6-sulfonamide], the IC50 turned out to be 12.6 nM on PARG (PARG, TFMU-ADPr substrate) and 213 nM in the assay on HCC1806 (Homo sapiens, HCC1806, 168 h).

For the compound `COCC1CN(c2cc(S(=O)(=O)NC3(CF)COC3)cn3c(-c4nnc(C(F)F)s4)nc(Cl)c23)CCN1` (centres unmarked) [Example 136, 1-chloro-3-(5-(difluoromethyl)-1,3,4-thiadiazol-2-yl)-N-(3-(fluoromethyl)oxetan-3-yl)-8-(3-(methoxymethyl)piperazin-1-yl)imidazo[1,5-a]pyridine-6-sulfonamide], the concentration for half-maximal inhibition (IC50) came to 7.94 nM against PARG (PARG, TFMU-ADPr substrate) and 199 nM in the assay on HCC1806 (Homo sapiens, HCC1806, 168 h).

Take `CC(C)OCC1CN(c2cc(S(=O)(=O)NC3(C)COC3)cn3c(-c4nnc(C(F)F)s4)nc(Cl)c23)CCN1` (centres unmarked) [Example 137, 1-chloro-3-(5-(difluoromethyl)-1,3,4-thiadiazol-2-yl)-8-(3-(isopropoxymethyl)piperazin-1-yl)-N-(3-methyloxetan-3-yl)imidazo[1,5-a]pyridine-6-sulfonamide]: the half-maximal inhibitory concentration (IC50) at PARG (PARG, TFMU-ADPr substrate) stood at 15.8 nM; in the assay on HCC1806 (Homo sapiens, HCC1806, 168 h), 332 nM.

As to `C[C@@H]1CN(c2cc(S(=O)(=O)NC3(C#N)CC3)cn3c(-c4nnc(C(F)F)s4)ncc23)CCN1C(CO)C(F)(F)F` (stereo partly drawn) [Example 144, N-(1-cyanocyclopropyl)-3-(5-(difluoromethyl)-1,3,4-thiadiazol-2-yl)-8-((3R)-3-methyl-4-(1,1,1-trifluoro-3-hydroxypropan-2-yl)piperazin-1-yl)imidazo[1,5-a]pyridine-6-sulfonamide], the IC50 against PARG (setting [1]) was 100 to 500 nM; at PARG (PARG, TFMU-ADPr substrate), 263 nM; in the assay with HCC1806, 7020 nM; in the assay on HCC1806 (Homo sapiens, HCC1806, 168 h) it was 5000 to 30000 nM.

Turning to `N#CC1(NS(=O)(=O)c2cc(N3CCN(C4COC4)CC3)c3cnc(-c4nnc(C(F)F)s4)n3c2)CC1` [Example 147, N-(1-cyanocyclopropyl)-3-(5-(difluoromethyl)-1,3,4-thiadiazol-2-yl)-8-(4-(oxetan-3-yl)piperazin-1-yl)imidazo[1,5-a]pyridine-6-sulfonamide], the half-maximal inhibitory concentration (IC50) was less than 100 nM against PARG (setting [1]); 34.1 nM against PARG (PARG, TFMU-ADPr substrate); 9940 nM with HCC1806; 5000 to 30000 nM with HCC1806 (Homo sapiens, HCC1806, 168 h).

On to `[2H]c1nc(-c2nnc(C(F)(F)F)s2)n2cc(S(=O)(=O)NC3(C#N)CC3)cc(N3CCN(C(=O)C4CC4)CC3)c12` [Example 157, N-(1-cyanocyclopropyl)-8-(4-(cyclopropanecarbonyl)piperazin-1-yl)-3-(5-(trifluoromethyl)-1,3,4-thiadiazol-2-yl)imidazo[1,5-a]pyridine-6-sulfonamide-1-d], for which the IC50 against PARG (PARG, TFMU-ADPr substrate) turned out to be 33.1 nM; in the assay with HCC1806 (Homo sapiens, HCC1806, 168 h) it was 1020 nM.

Take `[2H]c1nc(-c2nnc(C(F)F)s2)n2cc(S(=O)(=O)NC3(C)COC3)cc(N3CCNC(COC)C3)c12` (centres unmarked) [Example 158, 3-(5-(difluoromethyl)-1,3,4-thiadiazol-2-yl)-8-(3-(methoxymethyl)piperazin-1-yl)-N-(3-methyloxetan-3-yl)imidazo[1,5-a]pyridine-6-sulfonamide-1-d]: the IC50 against PARG (PARG, TFMU-ADPr substrate) turned out to be 15.8 nM; in the assay with HCC1806 (Homo sapiens, HCC1806, 168 h), 1090 nM.

Regarding `[2H]c1nc(-c2nnc(C(F)F)s2)n2cc(S(=O)(=O)NC3(C)COC3)cc(N3C[C@H](C)N[C@@H](C)C3)c12` [Example 160, 3-(5-(difluoromethyl)-1,3,4-thiadiazol-2-yl)-8-((3S,5S)-3,5-dimethylpiperazin-1-yl)-N-(3-methyloxetan-3-yl)imidazo[1,5-a]pyridine-6-sulfonamide-1-d], the half-maximal inhibitory concentration (IC50) amounted to 0.23 nM against PARG (PARG, TFMU-ADPr substrate) and 23.5 nM in the assay with HCC1806 (Homo sapiens, HCC1806, 168 h).

`CC(C)C(=O)N1CCN(c2nc(S(=O)(=O)NC3(C)CC3)cn3c(-c4nnc(C(F)F)s4)ncc23)CC1` [Example 162, 3-(5-(difluoromethyl)-1,3,4-thiadiazol-2-yl)-8-(4-isobutyrylpiperazin-1-yl)-N-(1-methylcyclopropyl)imidazo[1,5-a]pyrazine-6-sulfonamide]: the 50% inhibitory concentration (IC50) was 500 to 1000 nM against PARG (setting [1]); 525 nM against PARG (PARG, TFMU-ADPr substrate); 6070 nM in the assay with HCC1806; 5000 to 30000 nM in the assay with HCC1806 (Homo sapiens, HCC1806, 168 h).

Turning to `CC(C)C(=O)N1CCN(c2cc(S(=O)(=O)NC3(C)CC3)cn3c(-c4nnc(C(F)(F)F)s4)nc(C#N)c23)CC1` [Example 164, 1-cyano-8-(4-isobutyrylpiperazin-1-yl)-N-(1-methylcyclopropyl)-3-(5-(trifluoromethyl)-1,3,4-thiadiazol-2-yl)imidazo[1,5-a]pyridine-6-sulfonamide], the IC50 on PARG (PARG, TFMU-ADPr substrate) was determined as 3.31 nM; with HCC1806 (Homo sapiens, HCC1806, 168 h) it was 100 nM.

Regarding `CC(C)C(=O)N1CCN(c2cc(S(=O)(=O)NC3(C)CC3)cn3c(-c4nnc(C(F)F)s4)nc(C#N)c23)C[C@H]1C` [Example 165, (R)-1-cyano-3-(5-(difluoromethyl)-1,3,4-thiadiazol-2-yl)-8-(4-isobutyryl-3-methylpiperazin-1-yl)-N-(1-methylcyclopropyl)imidazo[1,5-a]pyridine-6-sulfonamide], the IC50 on PARG (PARG, TFMU-ADPr substrate) was found to be 20 nM; with HCC1806 (Homo sapiens, HCC1806, 168 h), 1000 nM.

For the compound `CC(C)C(=O)N1CCN(c2cc(S(=O)(=O)NC3CC3)cn3c(-c4nnc(C(F)(F)F)s4)nc(C#N)c23)CC1` [Example 166, 1-cyano-N-cyclopropyl-8-(4-isobutyrylpiperazin-1-yl)-3-(5-(trifluoromethyl)-1,3,4-thiadiazol-2-yl)imidazo[1,5-a]pyridine-6-sulfonamide], the concentration for half-maximal inhibition (IC50) at PARG (PARG, TFMU-ADPr substrate) was found to be 13.2 nM; with HCC1806 (Homo sapiens, HCC1806, 168 h), 882 nM.

As to `[2H]C([2H])([2H])OC1(C(=O)N2CCN(c3cc(S(=O)(=O)NC4(C)CC4)cn4c(-c5nnc(C(F)(F)F)s5)ncc34)CC2)CC1` [Example 168, 8-(4-(1-(methoxy-d3)cyclopropane-1-carbonyl)piperazin-1-yl)-N-(1-methylcyclopropyl)-3-(5-(trifluoromethyl)-1,3,4-thiadiazol-2-yl)imidazo[1,5-a]pyridine-6-sulfonamide], the IC50 was determined as 0.15 nM against PARG (PARG, TFMU-ADPr substrate) and 14 nM in the assay on HCC1806 (Homo sapiens, HCC1806, 168 h).

For the compound `Cc1nc(-c2nnc(C(F)F)s2)n2cc(S(=O)(=O)NC3(C)COC3)cc(N3CCC4(CC3)COC4)c12` [Example 169, 3-(5-(difluoromethyl)-1,3,4-thiadiazol-2-yl)-1-methyl-N-(3-methyloxetan-3-yl)-8-(2-oxa-7-azaspiro[3.5]nonan-7-yl)imidazo[1,5-a]pyridine-6-sulfonamide], the IC50 was 1.82 nM on PARG (PARG, TFMU-ADPr substrate) and 27 nM in the assay on HCC1806 (Homo sapiens, HCC1806, 168 h).

With `Cc1nc(-c2nnc(C(F)F)s2)n2cc(S(=O)(=O)NC3(C#N)CC3)cc(N3CCN(C(=O)C(C)C)CC3)c12` [Example 170, N-(1-cyanocyclopropyl)-3-(5-(difluoromethyl)-1,3,4-thiadiazol-2-yl)-8-(4-isobutyrylpiperazin-1-yl)-1-methylimidazo[1,5-a]pyridine-6-sulfonamide], the half-maximal inhibitory concentration (IC50) on PARG (PARG, TFMU-ADPr substrate) was 1.66 nM; with HCC1806 (Homo sapiens, HCC1806, 168 h) it was 122 nM.

Turning to `Cc1nc(-c2nnc(C(F)(F)F)s2)n2cc(S(=O)(=O)NC3(C)CC3)cc(N3CCN(C(=O)[C@H]4CCN4C)CC3)c12` [Example 171, (R)-1-methyl-8-(4-(1-methylazetidine-2-carbonyl)piperazin-1-yl)-N-(1-methylcyclopropyl)-3-(5-(trifluoromethyl)-1,3,4-thiadiazol-2-yl)imidazo[1,5-a]pyridine-6-sulfonamide], the IC50 at PARG (PARG, TFMU-ADPr substrate) came to 0.71 nM; in the assay on HCC1806 (Homo sapiens, HCC1806, 168 h), 32 nM.

Turning to `Cc1nc(-c2nnc(C(F)(F)F)s2)n2cc(S(=O)(=O)NC3(C#N)CC3)cc(N3CCN(C(=O)C4CCO4)CC3)c12` (centres unmarked) [Example 172, N-(1-cyanocyclopropyl)-1-methyl-8-(4-(oxetane-2-carbonyl)piperazin-1-yl)-3-(5-(trifluoromethyl)-1,3,4-thiadiazol-2-yl)imidazo[1,5-a]pyridine-6-sulfonamide], the IC50 at PARG (PARG, TFMU-ADPr substrate) was 10 nM; in the assay with HCC1806 (Homo sapiens, HCC1806, 168 h), 308 nM.

For the compound `CC(=O)N1CCN(c2cc(S(=O)(=O)NC3(C#N)CC3)cn3c(-c4nnc(C(F)(F)F)s4)ncc23)CC1` [Example 173, 8-(4-acetylpiperazin-1-yl)-N-(1-cyanocyclopropyl)-3-(5-(trifluoromethyl)-1,3,4-thiadiazol-2-yl)imidazo[1,5-a]pyridine-6-sulfonamide], the IC50 at PARG (PARG, TFMU-ADPr substrate) was determined as 50.1 nM; in the assay on HCC1806 (Homo sapiens, HCC1806, 168 h), 400 nM.

Regarding `CC(C)C(=O)N1CCN(c2cc(S(=O)(=O)NC3(C)COC3)cn3c(-c4nnc(C(F)(F)F)s4)ncc23)C[C@H]1C` [Example 174, (R)-8-(4-isobutyryl-3-methylpiperazin-1-yl)-N-(3-methyloxetan-3-yl)-3-(5-(trifluoromethyl)-1,3,4-thiadiazol-2-yl)imidazo[1,5-a]pyridine-6-sulfonamide], the IC50 against PARG (PARG, TFMU-ADPr substrate) amounted to 5.01 nM; in the assay with HCC1806 (Homo sapiens, HCC1806, 168 h), 856 nM.

Regarding `O=S(=O)(NC1(CF)COC1)c1cc(N2CCC3(CC2)COC3)c2cnc(-c3nnc(C(F)(F)F)s3)n2c1` [Example 176, N-(3-(fluoromethyl)oxetan-3-yl)-8-(2-oxa-7-azaspiro[3.5]nonan-7-yl)-3-(5-(trifluoromethyl)-1,3,4-thiadiazol-2-yl)imidazo[1,5-a]pyridine-6-sulfonamide], the half-maximal inhibitory concentration (IC50) against PARG (PARG, TFMU-ADPr substrate) was 4.37 nM; in the assay with HCC1806 (Homo sapiens, HCC1806, 168 h), 1340 nM.

For the compound `COC1(C(=O)N2CCN(c3cc(S(=O)(=O)NC4(C)COC4)cn4c(-c5nnc(C(F)(F)F)s5)ncc34)CC2)CC1` [Example 177, 8-(4-(1-methoxycyclopropane-1-carbonyl)piperazin-1-yl)-N-(3-methyloxetan-3-yl)-3-(5-(trifluoromethyl)-1,3,4-thiadiazol-2-yl)imidazo[1,5-a]pyridine-6-sulfonamide], the half-maximal inhibitory concentration (IC50) on PARG (PARG, TFMU-ADPr substrate) came out at 0.54 nM; in the assay on HCC1806 (Homo sapiens, HCC1806, 168 h), 15 nM.
